Source: the NIST ThermoML archive (doi:10.1016/j.jct.2018.04.019)
Numbers after ± are expanded uncertainties.

Conditions: Liquid; for speed of sound: Frequency=5 MHz, Pulse-echo method; for mass density: Vibrating tube method

Compound: CCCCCCCCC [nonane]
- speed of sound (283.13 K, 1090 kPa): 1273.9 ± 1.8 m/s
- speed of sound (283.13 K, 30100 kPa): 1432.4 ± 1.8 m/s
- speed of sound (283.13 K, 59970 kPa): 1563.7 ± 1.9 m/s
- speed of sound (283.13 K, 90370 kPa): 1676.8 ± 2 m/s
- speed of sound (283.13 K, 120250 kPa): 1774.7 ± 2.1 m/s
- speed of sound (283.13 K, 149990 kPa): 1862.2 ± 2.2 m/s
- speed of sound (283.13 K, 180130 kPa): 1943.2 ± 2.3 m/s
- speed of sound (283.13 K, 210070 kPa): 2017.3 ± 2.4 m/s
- speed of sound (283.13 K, 240000 kPa): 2086.3 ± 2.5 m/s
- speed of sound (283.13 K, 270320 kPa): 2151.8 ± 2.5 m/s
- speed of sound (283.13 K, 300010 kPa): 2212.5 ± 2.6 m/s
- speed of sound (283.13 K, 330300 kPa): 2271 ± 2.7 m/s
- speed of sound (283.13 K, 360220 kPa): 2326 ± 2.8 m/s
- speed of sound (283.13 K, 389880 kPa): 2378.1 ± 2.9 m/s
- mass density (283.15 K, 1010 kPa): 726.22 ± 0.62 kg/m3
- mass density (283.15 K, 5020 kPa): 729.22 ± 0.63 kg/m3
- mass density (283.15 K, 5040 kPa): 729.17 ± 0.63 kg/m3
- mass density (283.15 K, 10020 kPa): 732.75 ± 0.64 kg/m3
- mass density (283.15 K, 15020 kPa): 736.14 ± 0.66 kg/m3
- mass density (283.15 K, 20040 kPa): 739.41 ± 0.68 kg/m3
- mass density (283.15 K, 25020 kPa): 742.54 ± 0.7 kg/m3
- mass density (283.15 K, 30040 kPa): 745.52 ± 0.72 kg/m3
- mass density (283.15 K, 35050 kPa): 748.45 ± 0.74 kg/m3
- mass density (283.15 K, 40010 kPa): 751.23 ± 0.77 kg/m3
- mass density (283.15 K, 45050 kPa): 753.99 ± 0.79 kg/m3
- mass density (283.15 K, 50010 kPa): 756.62 ± 0.81 kg/m3
- mass density (283.15 K, 55020 kPa): 759.19 ± 0.84 kg/m3
- mass density (283.15 K, 60030 kPa): 761.66 ± 0.87 kg/m3
- mass density (283.15 K, 65010 kPa): 764.08 ± 0.89 kg/m3
- mass density (298.15 K, 1020 kPa): 714.83 ± 0.62 kg/m3
- speed of sound (298.15 K, 1040 kPa): 1212.6 ± 1.8 m/s
- mass density (298.15 K, 5010 kPa): 718.08 ± 0.63 kg/m3
- mass density (298.15 K, 5040 kPa): 718.12 ± 0.63 kg/m3
- mass density (298.15 K, 10030 kPa): 721.94 ± 0.65 kg/m3
- mass density (298.15 K, 15060 kPa): 725.7 ± 0.66 kg/m3
- mass density (298.15 K, 20040 kPa): 729.17 ± 0.68 kg/m3
- mass density (298.15 K, 25040 kPa): 732.54 ± 0.7 kg/m3
- mass density (298.15 K, 30010 kPa): 735.76 ± 0.73 kg/m3
- speed of sound (298.15 K, 30040 kPa): 1380.2 ± 1.8 m/s
- mass density (298.15 K, 35050 kPa): 738.87 ± 0.75 kg/m3
- mass density (298.15 K, 40010 kPa): 741.88 ± 0.78 kg/m3
- mass density (298.15 K, 45060 kPa): 744.79 ± 0.8 kg/m3
- mass density (298.15 K, 50010 kPa): 747.56 ± 0.83 kg/m3
- mass density (298.15 K, 55040 kPa): 750.31 ± 0.85 kg/m3
- mass density (298.15 K, 60020 kPa): 752.92 ± 0.88 kg/m3
- speed of sound (298.15 K, 60130 kPa): 1518 ± 1.9 m/s
- mass density (298.15 K, 65010 kPa): 755.48 ± 0.91 kg/m3
- speed of sound (298.15 K, 90110 kPa): 1633.4 ± 1.9 m/s
- speed of sound (298.15 K, 120200 kPa): 1734.7 ± 2 m/s
- speed of sound (298.15 K, 150120 kPa): 1824.9 ± 2.1 m/s
- speed of sound (298.15 K, 180370 kPa): 1907.9 ± 2.2 m/s
- speed of sound (298.15 K, 210410 kPa): 1983.7 ± 2.4 m/s
- speed of sound (298.15 K, 240020 kPa): 2053.1 ± 2.4 m/s
- speed of sound (298.15 K, 270230 kPa): 2119.6 ± 2.5 m/s
- speed of sound (298.15 K, 300100 kPa): 2181.4 ± 2.6 m/s
- speed of sound (298.15 K, 330260 kPa): 2240.5 ± 2.7 m/s
- speed of sound (298.15 K, 360030 kPa): 2296 ± 2.8 m/s
- speed of sound (298.15 K, 390030 kPa): 2349.2 ± 2.8 m/s
- speed of sound (323.14 K, 1020 kPa): 1112.3 ± 1.8 m/s
- speed of sound (323.14 K, 30050 kPa): 1297.8 ± 1.8 m/s
- speed of sound (323.14 K, 60210 kPa): 1445.2 ± 1.8 m/s
- speed of sound (323.14 K, 90150 kPa): 1566.7 ± 1.9 m/s
- speed of sound (323.14 K, 120240 kPa): 1672.3 ± 2 m/s
- speed of sound (323.14 K, 150130 kPa): 1765.5 ± 2.1 m/s
- speed of sound (323.14 K, 179980 kPa): 1850.1 ± 2.2 m/s
- speed of sound (323.14 K, 210410 kPa): 1929.2 ± 2.3 m/s
- speed of sound (323.14 K, 239980 kPa): 2000.4 ± 2.4 m/s
- speed of sound (323.14 K, 270330 kPa): 2068.7 ± 2.5 m/s
- speed of sound (323.14 K, 300070 kPa): 2131.6 ± 2.6 m/s
- speed of sound (323.14 K, 330050 kPa): 2191.3 ± 2.6 m/s
- speed of sound (323.14 K, 360040 kPa): 2247.9 ± 2.7 m/s
- speed of sound (323.14 K, 390060 kPa): 2301.7 ± 2.8 m/s
- mass density (323.15 K, 1030 kPa): 695.27 ± 0.62 kg/m3
- mass density (323.15 K, 5030 kPa): 699.04 ± 0.63 kg/m3
- mass density (323.15 K, 5060 kPa): 699.09 ± 0.63 kg/m3
- mass density (323.15 K, 10050 kPa): 703.57 ± 0.65 kg/m3
- mass density (323.15 K, 15020 kPa): 707.81 ± 0.67 kg/m3
- mass density (323.15 K, 20050 kPa): 711.84 ± 0.69 kg/m3
- mass density (323.15 K, 25020 kPa): 715.63 ± 0.72 kg/m3
- mass density (323.15 K, 30020 kPa): 719.22 ± 0.74 kg/m3
- mass density (323.15 K, 35080 kPa): 722.75 ± 0.77 kg/m3
- mass density (323.15 K, 40050 kPa): 726.09 ± 0.79 kg/m3
- mass density (323.15 K, 45060 kPa): 729.27 ± 0.82 kg/m3
- mass density (323.15 K, 50030 kPa): 732.36 ± 0.85 kg/m3
- mass density (323.15 K, 55050 kPa): 735.35 ± 0.88 kg/m3
- mass density (323.15 K, 60010 kPa): 738.19 ± 0.91 kg/m3
- mass density (323.15 K, 65010 kPa): 741.02 ± 0.94 kg/m3
- speed of sound (348.14 K, 1040 kPa): 1017.2 ± 1.8 m/s
- speed of sound (348.14 K, 1060 kPa): 1018.1 ± 1.8 m/s
- speed of sound (348.14 K, 30150 kPa): 1220.8 ± 1.8 m/s
- speed of sound (348.14 K, 59870 kPa): 1375.2 ± 1.8 m/s
- speed of sound (348.14 K, 90060 kPa): 1503.8 ± 1.8 m/s
- speed of sound (348.14 K, 120210 kPa): 1613.8 ± 1.9 m/s
- speed of sound (348.14 K, 150180 kPa): 1710.4 ± 2 m/s
- speed of sound (348.14 K, 180310 kPa): 1798.1 ± 2.2 m/s
- speed of sound (348.14 K, 210230 kPa): 1877.8 ± 2.3 m/s
- speed of sound (348.14 K, 240360 kPa): 1951.8 ± 2.4 m/s
- speed of sound (348.14 K, 269990 kPa): 2019.2 ± 2.5 m/s
- speed of sound (348.14 K, 300420 kPa): 2084.3 ± 2.5 m/s
- speed of sound (348.14 K, 330170 kPa): 2144.5 ± 2.6 m/s
- speed of sound (348.14 K, 360170 kPa): 2202.2 ± 2.7 m/s
- speed of sound (348.14 K, 390070 kPa): 2256.5 ± 2.8 m/s
- mass density (348.15 K, 1010 kPa): 675.18 ± 0.63 kg/m3
- mass density (348.15 K, 5030 kPa): 679.76 ± 0.64 kg/m3
- mass density (348.15 K, 5040 kPa): 679.76 ± 0.64 kg/m3
- mass density (348.15 K, 10030 kPa): 685 ± 0.66 kg/m3
- mass density (348.15 K, 15020 kPa): 689.84 ± 0.68 kg/m3
- mass density (348.15 K, 20040 kPa): 694.44 ± 0.7 kg/m3
- mass density (348.15 K, 25050 kPa): 698.79 ± 0.73 kg/m3
- mass density (348.15 K, 30030 kPa): 702.84 ± 0.75 kg/m3
- mass density (348.15 K, 35050 kPa): 706.74 ± 0.78 kg/m3
- mass density (348.15 K, 40020 kPa): 710.4 ± 0.81 kg/m3
- mass density (348.15 K, 45070 kPa): 714.01 ± 0.84 kg/m3
- mass density (348.15 K, 50040 kPa): 717.37 ± 0.87 kg/m3
- mass density (348.15 K, 55050 kPa): 720.67 ± 0.9 kg/m3
- mass density (348.15 K, 60000 kPa): 723.79 ± 0.94 kg/m3
- mass density (348.15 K, 65040 kPa): 726.84 ± 0.97 kg/m3
- speed of sound (373.14 K, 1020 kPa): 924.94 ± 1.9 m/s
- speed of sound (373.14 K, 30120 kPa): 1147.9 ± 1.8 m/s
- speed of sound (373.14 K, 60040 kPa): 1312.4 ± 1.7 m/s
- speed of sound (373.14 K, 90420 kPa): 1447 ± 1.8 m/s
- speed of sound (373.14 K, 120190 kPa): 1559.5 ± 1.9 m/s
- speed of sound (373.14 K, 150200 kPa): 1659 ± 2 m/s
- speed of sound (373.14 K, 180540 kPa): 1749 ± 2.1 m/s
- speed of sound (373.14 K, 210010 kPa): 1829.3 ± 2.2 m/s
- speed of sound (373.14 K, 240370 kPa): 1905.5 ± 2.3 m/s
- speed of sound (373.14 K, 270130 kPa): 1974.7 ± 2.4 m/s
- speed of sound (373.14 K, 300130 kPa): 2040.3 ± 2.5 m/s
- speed of sound (373.14 K, 330240 kPa): 2102.3 ± 2.6 m/s
